Data from PMC4875998, “Liposomal Systems as Nanocarriers for the Antiviral Agent Ivermectin” (International Journal of Biomaterials, 2016).

Assays:
[1] = Cytotoxicity (methylene blue / MTS assay), CC50; conditions: African green monkey, Vero-118 cells
[2] = Cytotoxicity (methylene blue / MTS assay), CC50; conditions: hamster, BHK cells
[3] = Cytotoxicity (methylene blue / MTS assay), CC50; conditions: mouse, RAW 264.7 cells
[4] = test system: tick-borne encephalitis viruses; conditions: in vitro; cited from earlier work
Cytotoxicity, CC50 = conditions: human, Half maximal cytotoxic concentration (CC50) Huh-7, Huh-7 cells; value not marked with the 48 h footnote
Huh-7 cells = test: Cytotoxicity, CC50; conditions: read-out: Half maximal cytotoxic concentration (CC50) Huh-7; Huh-7 cells; value not marked with the 48 h footnote
Vero-118 cells = test: Cytotoxicity (methylene blue / MTS assay), CC50; conditions: cell lines of Figure 6(b) / Table 2 (Vero-118, BHK, RAW)
[5] = Cytotoxicity (methylene blue / MTS assay), CC50; conditions: African green monkey, Vero-F cells
Dengue Fever = test system: Dengue Fever; set-up: method as in PMID 22535622; conditions: in vitro; cited from earlier work
Japanese encephalitis = test system: Japanese encephalitis; set-up: method as in PMID 22535622; conditions: in vitro; cited from earlier work
Yellow Fever = conditions: in vitro; cited from earlier work

| SMILES | CC50 at 4 days [1] [µM] | CC50 at 4 days [2] [µM] | CC50 at 4 days [3] [µM] | EC50 [4] | CC50 (Cytotoxicity, CC50) [µM] | CC50 (Huh-7 cells) [µM] | Times more cytotoxic in comparison to 2-cmc (Vero-118 cells) [times] | CC50 at 4 days [5] [µM] | EC50 (Dengue Fever) | EC50 (Japanese encephalitis) | EC50 (Yellow Fever) |
| --- | --- | --- | --- | --- | --- | --- | --- | --- | --- | --- | --- |
| C[C@@]1(O)[C@H](O)[C@@H](CO)O[C@H]1n1ccc(N)nc1=O [2-cmc, 2′-c-Methylcytidine] | 117 | 238 | 37.6 | – | – | – | – | – | – | – | – |
| CC[C@H](C)[C@H]1O[C@]2(CC[C@@H]1C)C[C@@H]1C[C@@H](C/C=C(\C)[C@@H](O[C@H]3C[C@H](OC)[C@@H](O[C@H]4C[C@H](OC)[C@@H](O)[C@H](C)O4)[C@H](C)O3)[C@@H](C)/C=C/C=C3\CO[C@@H]4[C@H](O)C(C)=C[C@@H](C(=O)O1)[C@]34O)O2 [Ivermectin, 22,23-dihydroavermectin B1] | 5.7 | 1.5 | 0.8 | submicromolar | 7.3 | 10 | 10 | 23.6 | submicromolar | submicromolar | subnanomolar range |
